Inconclusive results and toxic doses are left out. Cut-off read from the data, not from the text of the source: active = T/C of 150% or more; inactive = T/C below 125%.
Tested on: L1210 leukemia ip in BDF1 mice, survival T/C
Test: NCI In Vivo Anticancer Drug Screen. Data for tumor model L1210 Leukemia (intraperitoneal) in B6D2F1 (BDF1) mice
Details: endpoint: mean survival time, higher = longer survival
In short: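 Antitumor effect is assessed in tumor-bearing animals. Survival in the compound arm is compared with a vehicle-dosed control arm and expressed as their quotient.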

[1] = dose: 100.0 mg/kg/injection, schedule: Q01DX009 (ip), vehicle: Klucel (hydroxypropylcellulose) (HPC)
[2] = dose: 200.0 mg/kg/injection, schedule: Q01DX009 (ip), vehicle: Klucel (hydroxypropylcellulose) (HPC)

Measured: T/C

CCCCOC(=O)c1ccc(OC(=O)Nc2ccc([N+](=O)[O-])cc2OC)cc1
inactive: dose: 50.0 mg/kg/injection, schedule: Q01DX001 (ip), vehicle: Klucel (hydroxypropylcellulose) (HPC) 93 % of control | dose: 50.0 mg/kg/injection, schedule: Q01DX009 (ip), vehicle: Klucel (hydroxypropylcellulose) (HPC) 96 % of control | dose: 50.0 mg/kg/injection, schedule: Q01DX009 (ip), vehicle: other 101 % of control | dose: 50.0 mg/kg/injection, schedule: Q04DX002 (ip), vehicle: Klucel (hydroxypropylcellulose) (HPC) 97 % of control | dose: 50.0 mg/kg/injection, schedule: Q04DX003 (ip), vehicle: other 98 % of control | dose: 100.0 mg/kg/injection, schedule: Q01DX001 (ip), vehicle: Klucel (hydroxypropylcellulose) (HPC) 93 % of control | [1] 96 % of control | dose: 100.0 mg/kg/injection, schedule: Q01DX009 (ip), vehicle: other 105 % of control | dose: 100.0 mg/kg/injection, schedule: Q04DX002 (ip), vehicle: Klucel (hydroxypropylcellulose) (HPC) 94 % of control | dose: 100.0 mg/kg/injection, schedule: Q04DX003 (ip), vehicle: other 109 % of control | dose: 200.0 mg/kg/injection, schedule: Q01DX001 (ip), vehicle: Klucel (hydroxypropylcellulose) (HPC) 92 % of control | [2] 122 % of control | dose: 200.0 mg/kg/injection, schedule: Q01DX009 (ip), vehicle: other 102 % of control | dose: 200.0 mg/kg/injection, schedule: Q04DX002 (ip), vehicle: Klucel (hydroxypropylcellulose) (HPC) 97 % of control | dose: 200.0 mg/kg/injection, schedule: Q04DX003 (ip), vehicle: other 101 % of control | dose: 400.0 mg/kg/injection, schedule: Q01DX001 (ip), vehicle: Klucel (hydroxypropylcellulose) (HPC) 101 % of control | dose: 400.0 mg/kg/injection, schedule: Q04DX002 (ip), vehicle: Klucel (hydroxypropylcellulose) (HPC) 100 % of control | dose: 400.0 mg/kg/injection, schedule: Q04DX003 (ip), vehicle: other 97 % of control

CSc1ccc(OC(=O)Nc2ccc(Cl)c(Cl)c2)cc1C
inactive: [1] 106 % of control | dose: 100.0 mg/kg/injection, schedule: Q04DX003 (ip), vehicle: Klucel (hydroxypropylcellulose) (HPC) 88 % of control | [2] 92 % of control | dose: 200.0 mg/kg/injection, schedule: Q04DX003 (ip), vehicle: Klucel (hydroxypropylcellulose) (HPC) 93 % of control | dose: 400.0 mg/kg/injection, schedule: Q01DX009 (ip), vehicle: Klucel (hydroxypropylcellulose) (HPC) 92 % of control | dose: 400.0 mg/kg/injection, schedule: Q04DX003 (ip), vehicle: Klucel (hydroxypropylcellulose) (HPC) 88 % of control

CCCOC(C)CC(c1ccccc1)(c1ccccc1)c1ccccc1 (configuration not stated)
inactive: dose: 12.5 mg/kg/injection, schedule: Q01DX009 (ip), vehicle: saline with Tween-80 98 % of control | dose: 25.0 mg/kg/injection, schedule: Q01DX009 (ip), vehicle: saline with Tween-80 95 % of control | dose: 50.0 mg/kg/injection, schedule: Q01DX009 (ip), vehicle: saline with Tween-80 91 % of control | dose: 200.0 mg/kg/injection, schedule: Q01DX009 (ip), vehicle: saline with Tween-80 90 % of control

COc1ccc(/C2=C/CCCCCC2)cc1
inactive: dose: 50.0 mg/kg/injection, schedule: Q01DX009 (ip), vehicle: acetone 87 % of control | dose: 100.0 mg/kg/injection, schedule: Q01DX009 (ip), vehicle: acetone 92 % of control | dose: 100.0 mg/kg/injection, schedule: Q04DX003 (ip), vehicle: acetone 96 % of control | dose: 200.0 mg/kg/injection, schedule: Q01DX009 (ip), vehicle: acetone 95 % of control | dose: 200.0 mg/kg/injection, schedule: Q04DX003 (ip), vehicle: acetone 103 % of control | dose: 400.0 mg/kg/injection, schedule: Q04DX003 (ip), vehicle: acetone 101 % of control

COc1cc(Cc2c3cc4c(cc3cc[n+]2C)OCO4)c(Oc2cc(Cc3c4cc5c(cc4cc[n+]3C)OCO5)ccc2OC)cc1OC
inactive: dose: 3.12 mg/kg/injection, schedule: Q04DX003 (ip), vehicle: saline with Tween-80 97 % of control | dose: 6.25 mg/kg/injection, schedule: Q04DX003 (ip), vehicle: saline with Tween-80 95 % of control | dose: 12.5 mg/kg/injection, schedule: Q04DX003 (ip), vehicle: saline with Tween-80 95 % of control

— PubChem BioAssay AID248 (DTP/NCI, 2004)
